# Measurements reported in patent US10479854B2, “Conjugate for treating malaria” (priority 2014, dated 2019).
# System: chloroquine-resistant Plasmodium falciparum strain (D10R)
# Experiment: In vitro anti-malaria assay (Malstat, lactate dehydrogenase)
# Type: cell-based
# Settings: read-out: IC50(chloroquine)
# Description: In separate experiments, tyrocidine/tryptocidines conjugated to polymers 11 and 12, respectively, were administered at varying concentrations to blood samples containing cells infected with a chloroquine-resistant Plasmodium falciparum strain (D10 resistant mutant denoted D10R, IC50(chloroquine)>100 nM). For comparison purposes, the unconjugated/unmodified natural tyrocidine/tryptocidine mixture was also administered to blood infected with the same chloroquin-resistant malaria strain. FIGS. 16 and 17 show the antimalaria activity and the haemolytic activity of the tyrocidine/tryptocidine-PVP conjugates in comparison with the natural cyclodecapetide mixture. […]
# P. falciparum (D10 strain) was cultured and dose-response assays were performed as previously described.^9 Briefly, parasites were cultured under an atmosphere of 3% CO2, 4% O2 and 93% N2 in RPMI-1640 media, supplemented with 25 mM HEPES, 50 mM glucose, 0.65 mM hypoxanthine, 0.048 mg/mL gentamicin, 0.2% (w/v) NaHCO3, 0.5% (w/v) Albumax II and 2% fresh human O^+ erythrocytes obtained from anonymous donors from the Western Cape Blood Blank. […] A 10 μL aliquot from each well was diluted to 100 μL with phosphate buffered saline and analysed at 405 nm, on a plate reader, to determine the quantity of released haemoglobin and haemolytic activity of the conjugates. […]
structure (smiles),measurement,value
CCN(CC)CCCC(C)Nc1ccnc2cc(Cl)ccc12 (stereo not shown) [chloroquine],IC50,> 100 nM
